Assay results published in the supplement of paper PMC10307832.

Key:
Assay in all cases: relative viability (nuclei count vs DMSO), 5 days (fraction); higher = more cells survive
[1] = compound: CCN1CCC(CC1)N2C=C(N=N2)CNC3=CC4=C(C(=CN=C4C(=C3)Cl)C#N)NC5=CC(=C(C=C5)F)Cl [KIN001-266] + CCNC(=O)c1noc(-c2cc(C(C)C)c(O)cc2O)c1-c1ccc(CN2CCOCC2)cc1 [Luminespib] (partner 0.01 µM)
Method in brief: (§1)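 Lung cancer cell lines, seeded in 1536-well plates, were treated the following day by pin tool with a single drug or with five library-drug doses (not always all listed) in √10 steps on top of a fixed anchor-drug dose. Cells were fixed and nuclei stained in one step after 5 days, and nuclei were counted. Relative viability is the nuclei count for treated wells divided by that for vehicle wells, reported as medians of duplicate plates.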

[2] = compound: CCN1CCC(CC1)N2C=C(N=N2)CNC3=CC4=C(C(=CN=C4C(=C3)Cl)C#N)NC5=CC(=C(C=C5)F)Cl [KIN001-266] + COc1cc2c(Oc3ccc(NC(=O)C4(C(=O)Nc5ccc(F)cc5)CC4)cc3F)ccnc2cc1OCCCN1CCOCC1 [Foretinib] (partner 0.25 µM)
Method in brief: as §1

[3] = compound: CCN1CCC(CC1)N2C=C(N=N2)CNC3=CC4=C(C(=CN=C4C(=C3)Cl)C#N)NC5=CC(=C(C=C5)F)Cl [KIN001-266] + Cc1cc(Nc2cc(N3CCN(C)CC3)nc(Sc3ccc(NC(=O)C4CC4)cc3)n2)n[nH]1 [Tozasertib] (partner 0.1 µM)
Method in brief: as §1

[4] = compound: CCN1CCC(CC1)N2C=C(N=N2)CNC3=CC4=C(C(=CN=C4C(=C3)Cl)C#N)NC5=CC(=C(C=C5)F)Cl [KIN001-266] + NC(=O)Nc1cc(-c2cccc(F)c2)sc1C(=O)N[C@H]1CCCNC1 [AZD7762] (partner 0.2 µM)
Method in brief: as §1

Row | Cell Line | relative viability ([1]; first compound 0.08 µM) | relative viability ([1]; first compound 0.253 µM) | relative viability ([1]; first compound 0.8 µM) | relative viability ([1]; first compound 2.53 µM) | relative viability ([1]; first compound 8 µM) | relative viability ([2]; first compound 0.08 µM) | relative viability ([2]; first compound 0.253 µM) | relative viability ([2]; first compound 0.8 µM) | relative viability ([2]; first compound 2.53 µM) | relative viability ([2]; first compound 8 µM) | relative viability ([3]; first compound 0.08 µM) | relative viability ([3]; first compound 0.253 µM) | relative viability ([3]; first compound 0.8 µM) | relative viability ([3]; first compound 2.53 µM) | relative viability ([3]; first compound 8 µM) | relative viability ([4]; first compound 0.08 µM) | relative viability ([4]; first compound 0.253 µM) | relative viability ([4]; first compound 0.8 µM) | relative viability ([4]; first compound 2.53 µM) | relative viability ([4]; first compound 8 µM)
1 | NCI-H1915 | 0.827 | 0.684 | 0.791 | 0.79 | 0.783 | 1.14 | 1.06 | 1.07 | 1.13 | 1.11 | 0.447 | 0.418 | 0.396 | 0.422 | 0.369 | 0.703 | 0.729 | 0.687 | 0.729 | 0.727
2 | NCI-H1944 | 0.73 | 0.771 | 0.708 | 0.744 | 0.68 | 0.898 | 0.806 | 0.886 | 0.911 | 0.882 | 0.25 | 0.264 | 0.241 | 0.235 | 0.254 | 0.579 | 0.544 | 0.401 | 0.46 | 0.394
3 | NCI-H1975 | 0.26 | 0.187 | 0.276 | 0.221 | 0.215 | 0.972 | 0.96 | 0.966 | 1.05 | 1.04 | 0.821 | 0.776 | 0.762 | 0.699 | 0.505 | 0.733 | 0.689 | 0.776 | 0.756 | 0.678
4 | NCI-H1993 | 0.872 | 1.02 | 0.705 | 0.736 | 0.533 | 0.86 | 0.777 | 0.758 | 0.749 | 0.675 | 0.596 | 0.563 | 0.574 | 0.567 | 0.553 | 1.06 | 0.815 | 0.673 | 0.827 | 0.624
5 | NCI-H2085 | 0.412 | 0.437 | 0.404 | 0.434 | 0.429 | 1.06 | 1.01 | 0.731 | 0.939 | 0.954 | 0.911 | 0.858 | 0.83 | 0.793 | 0.765 | 0.971 | 1.03 | 0.847 | 0.962 | 0.977
6 | NCI-H2087 | 0.199 | 0.156 | 0.173 | 0.165 | 0.184 | 1.22 | 1.17 | 1.09 | 1.15 | 0.962 | 0.206 | 0.246 | 0.23 | 0.175 | 0.155 | 1.28 | 1.37 | 1.51 | 1.25 | 0.771
7 | NCI-H2126 | 0.868 | 0.871 | 0.906 | 0.865 | 0.978 | 1.12 | 1.18 | 1.15 | 1.26 | 1.15 | 0.8 | 0.857 | 0.85 | 0.84 | 0.78 | 1.03 | 1.02 | 1 | 0.814 | 1.05
8 | NCI-H2170 | 0.704 | 0.801 | 0.675 | 0.739 | 0.568 | 0.984 | 1.03 | 1.01 | 0.987 | 0.976 | 0.802 | 0.715 | 0.623 | 0.785 | 0.709 | 0.924 | 0.958 | 0.924 | 0.854 | 0.774
